Data: ChEMBL document CHEMBL4350997, “The synthesis and anticancer activity of 2-styrylquinoline derivatives. A p53 independent mechanism of action” (Eur J Med Chem, 2019)
pIC50: −log10 of the molar value. Values after ≈ are worked out from the molar mass of the structure shown.

Legend:
HCT-116 [1] = assay: Cytotoxicity against human HCT116 cells expressing wild type p53 incubated for 72 hrs by MTS assay; conditions: HCT-116, 72 h
HCT-116 [2] = assay: Cytotoxicity against human HCT116 cells deficient in p53 incubated for 72 hrs by MTS assay; conditions: HCT-116, 72 h
NHDF = assay: Cytotoxicity against human NHDF cells incubated for 72 hrs by MTS assay; format: cell-based
PANC-1 = assay: Cytotoxicity against human PANC1 cells harboring mutant TP53 gene incubated for 72 hrs by MTS assay; format: functional, cell-based; conditions: PANC-1, 72 h
U-251 = assay: Cytotoxicity against human U251 cells harboring mutant TP53 gene incubated for 72 hrs by MTS assay; format: functional, cell-based; conditions: U-251, 72 h
HCT-116 [3] = assay: Anticancer activity against human HCT116 cells deficient in p53 assessed as inhibition of cell proliferation; format: functional, cell-based
HCT-116 [4] = assay: Anticancer activity against human HCT116 cells assessed as inhibition of cell proliferation
HepG2 = assay: Anticancer activity against human HepG2 cells assessed as inhibition of cell proliferation; format: functional, cell-based
MCF7 = assay: Anticancer activity against human MCF7 cells assessed as inhibition of cell proliferation; format: functional, cell-based
ASPC1 = assay: Cytotoxicity against human AsPC1 cells deficit of P53 gene incubated for 72 hrs by MTS assay; format: functional, cell-based; conditions: ASPC1, 72 h

SMILES | pIC50 (HCT-116 [1]) | pIC50 (HCT-116 [2]) | pIC50 (NHDF) | other results
Oc1cccc2ccc(/C=C/c3c(F)cccc3Cl)nc12 | < 4.60 | < 4.60 | – | –
COc1ccc(/C=C/c2nc(NCCCN(C)C)c3ccccc3n2)cc1 | 4.73 | 4.58 | 4.91 | pIC50 (PANC-1; read-out: IC50): < 4.60; pIC50 (U-251): 4.73
Oc1cccc2ccc(/C=C/c3ccccc3F)nc12 | – | – | – | pIC50 (HCT-116 [3]): 5.08
CC(=O)Oc1ccccc1/C=C/c1ccc2cccc(O)c2n1 | 5.14 | 4.87 | 5.16 | pIC50 (HCT-116 [4]): 5.14
CN(C)c1ccc(/C=C/c2cc(-c3nnc(N)s3)c3cc(Br)ccc3n2)cc1 | – | – | – | IC50 (HepG2): 9 µg/mL (≈ 19.9 µM)
COc1cccc2c(Nc3ccc(/C(C)=N/O)cc3)cc(/C=C/c3ccccc3)nc12 | – | – | – | IC50 (MCF7): > 4 µg/mL
Oc1ccc(/C=C/c2ccc3cccc(O)c3n2)cc1 | 4.87 | 4.78 | < 4.60 | –
COc1cccc2c1C(=O)c1c(O)c3c(c(O)c1C2=O)C[C@@](O)(C(=O)CO)C[C@@H]3O[C@H]1C[C@H](N)[C@H](O)[C@H](C)O1 [DOXORUBICIN] | 6.47 | 6.42 | 6.85 | pIC50 (PANC-1): 6.14; pIC50 (ASPC1): 6.07; pIC50 (U-251): 7.30
O=c1[nH]cc(F)c(=O)[nH]1 [FLUOROURACIL] | 5.35 | 5.33 | < 4.60 | –
